Here are results for one compound from PMC5344920, “Drug Repurposing of the Anthelmintic Niclosamide to Treat Multidrug-Resistant Leukemia” (Frontiers in Pharmacology, 2017).

In the experiment the target is T1, recombinant human GS (GSH synthetase, glutathione synthetase) (Homo sapiens, UniProt P48637).
T1 construct: gene GSS; commercial recombinant protein (Abcam, Cambridge, UK), labelled on amines with BLUE-NHS dye
T1 sequence (P48637 2-474): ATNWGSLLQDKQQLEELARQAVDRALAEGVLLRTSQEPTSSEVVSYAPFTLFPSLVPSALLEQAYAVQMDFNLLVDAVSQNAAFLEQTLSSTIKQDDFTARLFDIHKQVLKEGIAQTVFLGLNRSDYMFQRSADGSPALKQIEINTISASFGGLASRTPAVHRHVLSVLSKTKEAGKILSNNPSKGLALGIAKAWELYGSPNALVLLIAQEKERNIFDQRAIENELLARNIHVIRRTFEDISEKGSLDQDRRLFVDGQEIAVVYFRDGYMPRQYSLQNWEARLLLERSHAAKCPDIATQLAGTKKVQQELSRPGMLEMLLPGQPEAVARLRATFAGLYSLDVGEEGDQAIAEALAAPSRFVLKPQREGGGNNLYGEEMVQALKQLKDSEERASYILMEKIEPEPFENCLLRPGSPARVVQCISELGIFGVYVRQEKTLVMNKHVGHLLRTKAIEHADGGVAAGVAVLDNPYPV
Kind of experiment: microscale thermophoresis, BLUE-NHS labelled protein. To be noted: read-out: equilibrium binding constant. In general terms: Microscale thermophoresis detects binding through changes in fluorescence in a small temperature gradient.

For `O=C(Nc1ccc([N+](=O)[O-])cc1Cl)c1cc(Cl)ccc1O` [niclosamide], the Kd is 5.64 µM.
